In patent US9681664B2, “Macrocyclic picolinamides as fungicides” (Dow Agrosciences LLC, priority 2012, dated 2017) one finds pest or weed control data, which are given here for twelve molecules.

What all share (type): in vivo
The subject of assay [1] is Uncinula necator. The assay can be described thus: Grape powdery mildew (UNCINE) disease control. The settings on record: Erysiphe necator, 24 h, High volume application, 1 Day Protectant, read-out: UNCINE 1 DP disease control. The procedure:
Technical grades of materials were dissolved in acetone, which were then mixed with nine volumes of water containing 110 ppm Triton X-100. The fungicide solutions were applied onto wheat seedlings using an automated booth sprayer to run-off. All sprayed plants were allowed to air dry prior to further handling. All fungicides were evaluated using the aforementioned method for their activity vs. all target diseases. Wheat leaf blotch and brown rust activity were also evaluated using track spray applications, in which case the fungicides were formulated as EC formulations, containing 0.1% Trycol 5941 in the spray solutions. Grape seedlings (variety Carignane) were grown in soil-less Metro mix, with one plant per pot, and used in the test when approximately one month old. Plants were inoculated 24 hr after fungicide treatment by shaking spores from infected leaves over test plants. Plants were maintained in a greenhouse set at 20° C. until disease was fully developed. Fungicide formulation, application and disease assessment on the sprayed leaves followed the procedures as described in the Example A.

For assay [2], the system named is Erysiphe cichoracearum. Put plainly: Powdery mildew of cucumber (ERYSCI) disease control. The conditions noted are these: Golovinomyces cichoracearum, 24 h, 1 Day Protectant, high volume, read-out: Disease Control ERYSCI 1 DP. As to the method:
Technical grades of materials were dissolved in acetone, which were then mixed with nine volumes of water containing 110 ppm Triton X-100. The fungicide solutions were applied onto wheat seedlings using an automated booth sprayer to run-off. All sprayed plants were allowed to air dry prior to further handling. All fungicides were evaluated using the aforementioned method for their activity vs. all target diseases. Wheat leaf blotch and brown rust activity were also evaluated using track spray applications, in which case the fungicides were formulated as EC formulations, containing 0.1% Trycol 5941 in the spray solutions. Cucumber seedlings (variety Bush Pickle) were grown in soil-less Metro mix, with one plant per pot, and used in the test when 12 to 14 days old. Plants were inoculated with a spore suspension 24 hr following fungicide treatments. After inoculation the plants remained in the greenhouse set at 20° C. until disease was fully expressed. Fungicide formulation, application and disease assessment on the sprayed leaves followed the procedures as described in the Example A.

The subject of assay [3] is Rhyncosporium secalis. The assay can be described thus: Barley scald (RHYNSE) disease control. The conditions noted are these: 24 h, High volume application, 1 Day Protectant, read-out: RHYNSE 1 DP disease control. As to the method:
Technical grades of materials were dissolved in acetone, which were then mixed with nine volumes of water containing 110 ppm Triton X-100. The fungicide solutions were applied onto wheat seedlings using an automated booth sprayer to run-off. All sprayed plants were allowed to air dry prior to further handling. All fungicides were evaluated using the aforementioned method for their activity vs. all target diseases. Wheat leaf blotch and brown rust activity were also evaluated using track spray applications, in which case the fungicides were formulated as EC formulations, containing 0.1% Trycol 5941 in the spray solutions. Barley seedlings (variety Harrington) were propagated in soil-less Metro mix, with each pot having 8 to 12 plants, and used in the test when first leaf was fully emerged. Test plants were inoculated by an aqueous spore suspension of Rhyncosporium secalis 24 hr after fungicide treatments. After inoculation the plants were kept in a dew room at 20° C. with 100% relative humidity for 48 hr. The plants were then transferred to a greenhouse set at 20° C. for disease to develop. Fungicide formulation, application and disease assessment on the sprayed leaves followed the procedures as described in the Example A.

Assay [4] relates to Alternaria solani. Put plainly: Tomato early blight (ALTESO) disease control. The settings on record: 24 h, 1 Day Protectant, high volume, read-out: Disease Control ALTESO 1 DP. The procedure:
Technical grades of materials were dissolved in acetone, which were then mixed with nine volumes of water containing 110 ppm Triton X-100. The fungicide solutions were applied onto wheat seedlings using an automated booth sprayer to run-off. All sprayed plants were allowed to air dry prior to further handling. All fungicides were evaluated using the aforementioned method for their activity vs. all target diseases. Wheat leaf blotch and brown rust activity were also evaluated using track spray applications, in which case the fungicides were formulated as EC formulations, containing 0.1% Trycol 5941 in the spray solutions. Tomato plants (variety Outdoor girl) were propagated in soil-less Metro mix, with each pot having one plant, and used when 12 to 14 days old. Test plants were inoculated with an aqueous spore suspension of Alternaria solani 24 hr after fungicide treatments. After inoculation the plants were kept in 100% relative humidity (one day in a dark dew chamber followed by two to three days in a lighted dew chamber at 20° C.) to permit spores to germinate and infect the leaf. The plants were then transferred to a growth room at 22° C. for disease to develop. Fungicide formulation, application and disease assessment on the sprayed leaves followed the procedures as described in the Example A.

Assay [5] relates to Puccinia triticina; Synonym: Puccinia recondite f. sp. tritici. Put plainly: Wheat brown rust (PUCCRT) disease control on wheat seedlings. The settings on record: Puccinia triticina; for pest or weed control at 100 ppm: High volume application; for pest or weed control at 121.5 g/ha: Wheat Brown Rust, low volume application, 121.5 g/H. In short, it runs like this:
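Yuma wheat grown to first fully emerged leaf was inoculated with Puccinia triticina spore suspension either before or after fungicide treatment, held overnight at 22° C. and 100% RH in darkness, then kept at 24° C. Fungicide applied by booth sprayer to run-off (acetone/water, 110 ppm Triton X-100) or as EC by track spray.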

For assay [6], the system named is Glomerella lagenarium; Anamorph: Colletotrichum lagenarium. The assay can be described thus: Cucumber anthracnose (COLLLA) disease control. The conditions noted are these: Colletotrichum orbiculare, 24 h, 1 Day Protectant, high volume, read-out: Disease Control COLLLA 1 DP. The procedure:
Technical grades of materials were dissolved in acetone, which were then mixed with nine volumes of water containing 110 ppm Triton X-100. The fungicide solutions were applied onto wheat seedlings using an automated booth sprayer to run-off. All sprayed plants were allowed to air dry prior to further handling. All fungicides were evaluated using the aforementioned method for their activity vs. all target diseases. Wheat leaf blotch and brown rust activity were also evaluated using track spray applications, in which case the fungicides were formulated as EC formulations, containing 0.1% Trycol 5941 in the spray solutions. Cucumber seedlings (variety Bush Pickle) were propagated in soil-less Metro mix, with each pot having one plant, and used in the test when 12 to 14 days old. Test plants were inoculated with an aqueous spore suspension of Colletotrichum lagenarium 24 hr after fungicide treatments. After inoculation the plants were kept in a dew room at 22° C. with 100% relative humidity for 48 hr to permit spores to germinate and infect the leaf. The plants were then transferred to a growth room set at 22° C. for disease to develop. Fungicide formulation, application and disease assessment on the sprayed leaves followed the procedures as described in the Example A.

Setting [7] is: 24 h, 1 Day Protectant, read-out: PUCCRT 1DP disease control.
Setting [8] is: 72 h, 3 Day Curative, read-out: PUCCRT 3DC disease control.
[9] abbreviates: 24 h, 1 Day Protectant, read-out: Disease Control PUCCRT 1 DP 121.5 g/H.
Where [10] appears, read: 72 h, 3 Day Curative, read-out: Disease Control PUCCRT 3 DC 121.5 g/H.

Like-named read-outs stand apart in the source and are kept apart here. Where only a bound is given, the exact number is not on record here.

Turning to `CCCO[C@H]1CCC[C@H](NC(=O)c2nccc(OC)c2OC(C)=O)C(=O)O[C@@H](C)[C@@H]1Oc1ccccc1` [F141], the pest or weed control at 100 ppm in assay [1] lay within 0 to 80%; in assay [2] it was 0 to 80%; in assay [3], 80 to 100%; in assay [4], 80 to 100%; in assay [5] (setting [7]) it was 80 to 100%; in assay [5] (setting [8]) it was 80 to 100%. Moreover, the pest or weed control at 100 ppm in assay [6] fell in the range of 80 to 100%.
Take `COc1ccnc(C(=O)N[C@H]2CCC[C@H](Oc3ccccc3)[C@@H](OCC(C)C)[C@H](C)OC2=O)c1OCOC(C)=O` [F28]: the pest or weed control at 100 ppm in assay [1] is 0 to 80%; in assay [2], 0 to 80%; in assay [3], 80 to 100%; in assay [4], 0 to 80%; in assay [5] (setting [7]), 80 to 100%; in assay [5] (setting [8]), 80 to 100%. Further, the pest or weed control at 100 ppm in assay [6] was in the range of 80 to 100%.
With `C=C(C)CO[C@H]1CCC[C@H](NC(=O)c2nccc(OC)c2OCOC(C)=O)C(=O)O[C@@H](C)[C@@H]1OC` [F250], the pest or weed control at 100 ppm in assay [1] is 0 to 80%; in assay [2], less than 0%; in assay [3] it was 0 to 80%; in assay [4] it was 0 to 80%; in assay [6], 0 to 80%. Moreover, the pest or weed control at 121.5 g/ha in assay [5] (setting [9]) fell in the range of 0 to 80%; in assay [5] (setting [10]), 80 to 100%.
In the case of `COc1ccnc(C(=O)N[C@H]2CCC[C@H](Oc3ccccc3)[C@@H](OC)[C@H](C)OC2=O)c1OCOC(C)=O` [F252], the pest or weed control at 100 ppm is 0 to 80% in assay [1]; less than 0% in assay [2]; 80 to 100% in assay [3]; 0 to 80% in assay [4]; 80 to 100% in assay [6]. Moreover, the pest or weed control at 121.5 g/ha in assay [5] (setting [9]) and in assay [5] (setting [10]) was 80 to 100% in each case.
For `CCCO[C@H]1CCC[C@H](NC(=O)c2nccc(OC)c2OCOC(C)=O)C(=O)O[C@@H](C)[C@@H]1OC1CCCC1` [F155], the pest or weed control at 100 ppm in assay [1] was 0 to 80%; in assay [2], 80 to 100%; in assay [3] it was 0 to 80%; in assay [4] it was 80 to 100%; in assay [5] (setting [7]), 80 to 100%; in assay [5] (setting [8]), 80 to 100%. In assay [6], the pest or weed control at 100 ppm is 80 to 100%.
Consider `COc1ccnc(C(=O)N[C@H]2CCC[C@H](Oc3ccccc3)[C@@H](OC)[C@H](C)OC2=O)c1OCOC(=O)C(C)C` [F255], for which the pest or weed control at 100 ppm in assay [1] was 80 to 100%; in assay [2] it was less than 0%; in assay [3], 80 to 100%; in assay [4], 0 to 80%; in assay [6], 80 to 100%. The pest or weed control at 121.5 g/ha in assay [5] (setting [9]) and in assay [5] (setting [10]) was 80 to 100% throughout.
Consider `CCCO[C@H]1CCC[C@H](NC(=O)c2nccc(OC)c2OCOC(=O)C(C)C)C(=O)O[C@@H](C)[C@@H]1OC1CCCC1` [F154], for which the pest or weed control at 100 ppm in assay [1] lay in the range of 0 to 80%; in assay [2] it was 80 to 100%; in assay [3], 80 to 100%; in assay [4] it was 80 to 100%; in assay [5] (setting [7]), 80 to 100%; in assay [5] (setting [8]) it was 80 to 100%. Besides, the pest or weed control at 100 ppm in assay [6] was 80 to 100%.
For `CCCCCO[C@H]1[C@H](C)OC(=O)[C@@H](NC(=O)c2nccc(OC)c2OCOC(C)=O)CCC[C@@H]1OC1CCCC1` [F166], the pest or weed control at 100 ppm in assay [1] lay in the range of 0 to 80%; in assay [2] it was 80 to 100%; in assay [3], 80 to 100%; in assay [4], 80 to 100%; in assay [5] (setting [7]), 80 to 100%; in assay [5] (setting [8]), 80 to 100%.
In the case of `COc1ccnc(C(=O)N[C@H]2CCC[C@H](OCCCc3ccccc3)[C@@H](Oc3ccccc3)[C@H](C)OC2=O)c1OC(C)=O` [F134], the pest or weed control at 100 ppm in assay [1] fell in the range of 0 to 80%; in assay [2], 0 to 80%; in assay [3], 80 to 100%; in assay [4], 0 to 80%; in assay [5] (setting [7]), 80 to 100%; in assay [5] (setting [8]) it was 80 to 100%.
Consider `COc1ccnc(C(=O)N[C@H]2CCC[C@H](OCCCC(F)(F)F)[C@@H](OC3CCCC3)[C@H](C)OC2=O)c1OCOC(=O)C(C)C` [F171], for which the pest or weed control at 100 ppm in assay [1] was 0 to 80%; in assay [2], 80 to 100%; in assay [3], 80 to 100%; in assay [4] it was 80 to 100%; in assay [5] (setting [7]), 80 to 100%; in assay [5] (setting [8]), 80 to 100%.
For `COCCC(=O)Oc1c(OC)ccnc1C(=O)N[C@H]1CCC[C@H](Oc2ccccc2)[C@@H](OCCCc2ccccc2)[C@H](C)OC1=O` [F132], the pest or weed control at 100 ppm in assay [1] was 0 to 80%; in assay [2], 0 to 80%; in assay [3], 0 to 80%; in assay [4] it was 80 to 100%; in assay [5] (setting [7]), 80 to 100%; in assay [5] (setting [8]), 80 to 100%.
On to `COc1ccnc(C(=O)N[C@H]2CCC[C@H](OCCCC(F)(F)F)[C@@H](OC3CCCC3)[C@H](C)OC2=O)c1OC(C)=O` [F173], for which the pest or weed control at 100 ppm was 0 to 80% in assay [1]; 0 to 80% in assay [2]; 80 to 100% in assay [3]; 80 to 100% in assay [4]; 80 to 100% in assay [5] (setting [7]); 80 to 100% in assay [5] (setting [8]).
